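Exposure lasted 48 hours, with cells grown in 96-well plates and compounds tested at five concentrations. GI50 is the concentration that inhibits growth by half.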 Calls of active or inactive are those of the source. Rule as the data show it: active = GI50 up to about 1.1 µM and inactive = higher.
Columns and labels:
Assay in all cases: inhibition of tumour cell growth, NCI panel, 48 h
[1] = test system: RPMI-8226
[2] = test system: UACC-257
[3] = test system: NCI-H522
[4] = test system: LOX IMVI
[5] = test system: Malme-3M
[6] = test system: NCI/ADR-RES
[7] = test system: T47D
[8] = test system: SW-620
[9] = test system: MCF7
[10] = test system: MDA-MB-435
[11] = test system: Hs-578T
[12] = test system: MDA-MB-231
[13] = test system: A498
[14] = test system: U-251
[15] = test system: PC-3
[16] = test system: A549
[17] = test system: SN12C
[18] = test system: ACHN
[19] = test system: COLO 205

Measured: GI50

O=C1c2c(Br)sc(Br)c2[C@H]2OC(=S)N[C@@H]12
inactive: [1] 4.68 µM | [2] 7.08 µM | [3] 1.69 µM | [4] 3.02 µM | [5] 3.73 µM | [6] 8.51 µM | [7] 12.1 µM | [8] 2.43 µM | [9] 9.38 µM | [10] 2.96 µM | [11] 11.8 µM | [12] 12.1 µM | [13] 18.3 µM | [14] 2.78 µM | [15] 4.07 µM | [16] 17.1 µM | [17] 3.21 µM | [18] 4.45 µM | [19] 2.51 µM

Nc1ncnc2c1ncn2CCCCC(=O)O
inactive: [1] > 100 µM | [2] > 100 µM | [3] > 100 µM | [4] > 100 µM | [5] > 100 µM | [6] > 100 µM | [7] > 100 µM | [8] > 100 µM | [9] > 100 µM | [10] > 100 µM | [11] > 100 µM | [12] > 100 µM | [13] > 100 µM | [14] > 100 µM | [15] > 100 µM | [16] > 100 µM | [17] > 100 µM | [18] > 100 µM | [19] > 100 µM

Oc1nc2c(c(-c3ccc(Br)cc3)n1)COC/C2=C\c1ccc(Br)cc1
inactive: [1] > 50 µM | [2] > 50 µM | [3] > 50 µM | [4] > 50 µM | [5] > 50 µM | [6] > 50 µM | [7] > 50 µM | [8] > 50 µM | [9] 47.4 µM | [10] 29.4 µM | [11] > 50 µM | [12] > 50 µM | [13] > 50 µM | [14] > 50 µM | [15] > 50 µM | [17] > 50 µM | [18] > 50 µM | [19] > 50 µM

O=C(O)c1ccccc1Sc1ccc(C=C2NC(=S)N(c3ccccc3)C2=O)s1
inactive: [1] 41 µM | [2] > 100 µM | [3] 21.4 µM | [4] > 100 µM | [5] > 100 µM | [6] > 100 µM | [7] 77.6 µM | [8] > 100 µM | [9] > 100 µM | [10] > 100 µM | [11] > 100 µM | [12] > 100 µM | [13] > 100 µM | [14] > 100 µM | [15] > 100 µM | [17] > 100 µM | [18] 39.6 µM | [19] 54.7 µM
